In the supplement of paper PMC10883282:
Structures can show the parent of a compound that is named as a salt. ± gives the standard deviation of the averaged measurements.

Tested on: HS729
Test: relative viability vs DMSO control (72 h) (fraction); higher = more viable cells
In short: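 Sarcoma cell lines were plated in 384 wells to reach 80–90% confluence, treated after 24 h with 2.5 µl of serially diluted compound and held 72 h at 37 °C, 5% CO2. Relative viability was taken as percent growth from ATPLite readings, averaged over up to triplicate wells. The values were rescaled so that 1 marks full and 0 marks none.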

Structure (SMILES)	relative viability (0.00017 µM)	relative viability (0.00051 µM)	relative viability (0.00152 µM)	relative viability (0.00457 µM)	relative viability (0.01372 µM)	relative viability (0.04115 µM)	relative viability (0.1235 µM)	relative viability (0.3704 µM)	relative viability (1.111 µM)	relative viability (3.333 µM)	relative viability (10 µM)	relative viability (2 pM)	relative viability (5 pM)	relative viability (15 pM)	relative viability (50 pM)	relative viability (0.00014 µM)	relative viability (0.00041 µM)	relative viability (0.0012 µM)	relative viability (0.0037 µM)	relative viability (0.011 µM)	relative viability (200 fM)	relative viability (600 fM)
Cc1cc(Nc2ncnc3ccc(NC4=NC(C)(C)CO4)cc23)ccc1Oc1ccn2ncnc2c1 [Tucatinib]	1.05 ± 0.04	1.05 ± 0.028	1.06 ± 0.029	0.987 ± 0.06	0.974 ± 0.032	0.965 ± 0.061	0.967 ± 0.015	0.963 ± 0.032	0.957 ± 0.034	0.924 ± 0.071	0.909 ± 0.056											
N#CC[C@H](C1CCCC1)n1cc(-c2ncnc3[nH]ccc23)cn1 [Ruxolitinib]	1.07 ± 0.028	1.07 ± 0.028	1.06 ± 0.028	1.05 ± 0.027	1.02 ± 0.068	1.06 ± 0.031	1.01 ± 0.031	0.989 ± 0.035	0.938 ± 0.086	0.894 ± 0.1	0.764 ± 0.041											
Cc1ccc(F)c(NC(=O)Nc2ccc(-c3cccc4[nH]nc(N)c34)cc2)c1 [Linifanib]	1.02 ± 0.065	0.958 ± 0.072	0.937 ± 0.052	0.943 ± 0.077	0.958 ± 0.052	0.896 ± 0.033	0.83 ± 0.033	0.783 ± 0.018	0.7353 ± 0.0054	0.762 ± 0.049	0.689 ± 0.055											
Cc1nc(NC(=O)N2CCC[C@H]2C(N)=O)sc1-c1ccnc(C(C)(C)C(F)(F)F)c1 [Alpelisib]	1 ± 0.028	0.935 ± 0.034	0.922 ± 0.087	0.884 ± 0.042	0.838 ± 0.026	0.785 ± 0.067	0.745 ± 0.06	0.68 ± 0.041	0.577 ± 0.024	0.536 ± 0.039	0.445 ± 0.0061											
CC(C)(C)c1cc(NC(=O)Nc2ccc(-c3cn4c(n3)sc3cc(OCCN5CCOCC5)ccc34)cc2)no1 [Quizartinib]	1.03 ± 0.1	0.973 ± 0.047	1 ± 0.11	0.976 ± 0.12	1.01 ± 0.084	0.953 ± 0.062	1.01 ± 0.12	0.873 ± 0.069	0.894 ± 0.12	0.873 ± 0.061	0.929 ± 0.061											
CNC(=O)c1ccc(-c2cnc3ncc(Cc4ccc5ncccc5c4)n3n2)cc1F [Capmatinib]	0.949 ± 0.061	0.94 ± 0.025	0.945 ± 0.027	0.956 ± 0.053	0.935 ± 0.021	0.956 ± 0.023	0.949 ± 0.029	0.921 ± 0.054	0.924 ± 0.043	0.953 ± 0.087	0.906 ± 0.066											
CC(C)N1CCN(Cc2cnc(-c3cc(-c4cccc5[nH]ccc45)cc4[nH]ncc34)o2)CC1 [Nemiralisib]	1.06 ± 0.022	0.984 ± 0.026	0.98 ± 0.067	0.938 ± 0.038	0.978 ± 0.059	0.97 ± 0.067	0.892 ± 0.012	0.909 ± 0.063	0.787 ± 0.029	0.653 ± 0.037	0.52 ± 0.029											
C[C@@H](c1ccc2nccn2c1)n1nnc2ncc(-c3cnn(C)c3)nc21 [Volitinib]	0.947 ± 0.029	0.978 ± 0.013	0.978 ± 0.031	1.02 ± 0.043	0.938 ± 0.021	0.952 ± 0.066	0.955 ± 0.061	1 ± 0.053	1 ± 0.08	0.97 ± 0.034	1.03 ± 0.042											
COc1c(OCCCN2CCOCC2)ccc2c1N=C(NC(=O)c1cnc(N)nc1)N1CCN=C21 [Copanlisib]	1.05 ± 0.04	0.906 ± 0.03	0.919 ± 0.027	0.701 ± 0.12	0.688 ± 0.028	0.6016 ± 0.0023	0.483 ± 0.028	0.439 ± 0.045	0.324 ± 0.035	0.306 ± 0.022	0.255 ± 0.015											
CCN1CCN(Cc2ccc(Nc3ncc(F)c(-c4cc(F)c5nc(C)n(C(C)C)c5c4)n3)nc2)CC1 [Abemaciclib]	0.912 ± 0.041	0.923 ± 0.014	0.892 ± 0.057	0.862 ± 0.033	0.9097 ± 0.0087	0.865 ± 0.029	0.818 ± 0.029	0.854 ± 0.087	0.873 ± 0.025	0.886 ± 0.021	0.885 ± 0.011											
C[C@]1(O)C[C@@H](c2nc(-c3ccc4ccc(-c5ccccc5)nc4c3)c3c(N)nccn32)C1 [Linsitinib]	1.04 ± 0.051	1.02 ± 0.073	0.996 ± 0.053	0.969 ± 0.026	0.921 ± 0.033	0.842 ± 0.012	0.757 ± 0.047	0.655 ± 0.07	0.588 ± 0.047	0.577 ± 0.055	0.465 ± 0.049											
Cc1ccc(NC(=O)c2ccc(CN3CCN(C)CC3)cc2)cc1Nc1nc(-c2cccnc2)cs1 [Masitinib]	1.06 ± 0.064	1.06 ± 0.043	0.984 ± 0.066	1.03 ± 0.085	1.03 ± 0.037	1.04 ± 0.063	0.969 ± 0.038	0.913 ± 0.04	0.851 ± 0.054	0.576 ± 0.018	0.139 ± 0.022											
CN1CCN(c2ccc3nc(-c4c(N)c5c(F)cccc5[nH]c4=O)[nH]c3c2)CC1 [Dovitinib]	1.09 ± 0.058	1.03 ± 0.036	1.09 ± 0.027	1.04 ± 0.061	1.05 ± 0.079	1 ± 0.026	0.968 ± 0.083	0.832 ± 0.059	0.62 ± 0.025	0.41 ± 0.066	0.264 ± 0.034											
CC(=O)Nc1cccc(-n2c(=O)n(C3CC3)c(=O)c3c(Nc4ccc(I)cc4F)n(C)c(=O)c(C)c32)c1 [Trametinib]	1.05 ± 0.081	0.991 ± 0.036	0.918 ± 0.066	0.941 ± 0.051	0.789 ± 0.021	0.766 ± 0.013	0.73 ± 0.031	0.661 ± 0.018	0.638 ± 0.029	0.628 ± 0.033	0.611 ± 0.031											
C=CC(=O)N1CCC[C@@H](n2nc(-c3ccc(Oc4ccccc4)cc3)c3c(N)ncnc32)C1 [Ibrutinib]	1.04 ± 0.018	1.01 ± 0.051	0.942 ± 0.027	0.9505 ± 0.0054	0.972 ± 0.088	0.927 ± 0.063	0.907 ± 0.014	0.926 ± 0.03	0.94 ± 0.05	0.907 ± 0.068	0.762 ± 0.03											
COc1cc2/c(=N/c3ccc(Br)cc3F)nc[nH]c2cc1OCC1CCN(C)CC1 [Vandetanib]	0.915 ± 0.04	0.896 ± 0.083	0.899 ± 0.031	0.8994 ± 0.0041	0.871 ± 0.022	0.843 ± 0.047	0.857 ± 0.026	0.834 ± 0.068	0.746 ± 0.055	0.663 ± 0.03	0.028 ± 0.0075											
C[C@@H]1COCCN1c1cc(-c2ccnn2C)c2ccnc(-c3ccn[nH]3)c2n1	0.945 ± 0.068	0.894 ± 0.045	0.92 ± 0.071	0.873 ± 0.041	0.849 ± 0.036	0.804 ± 0.04	0.681 ± 0.019	0.634 ± 0.018	0.469 ± 0.017	0.403 ± 0.033	0.373 ± 0.012											
COc1cccc2c1C(=O)c1c(O)c3c(c(O)c1C2=O)C[C@@](O)(C(=O)CO)C[C@@H]3O[C@H]1C[C@H](N)[C@H](O)[C@H](C)O1 [Doxorubicin Hydrochloride]	0.93 ± 0.021	0.93 ± 0.047	0.949 ± 0.054	0.946 ± 0.055	0.81 ± 0.029	0.6943 ± 0.0048	0.525 ± 0.041	0.303 ± 0.017	0.258 ± 0.0095	0.136 ± 0.0072	0.118 ± 0.0061											
O=C(Nc1cnn2ccc(N3CCC[C@@H]3c3cc(F)ccc3F)nc12)N1CC[C@H](O)C1 [Larotrectinib]	1.07 ± 0.041	0.958 ± 0.062	0.895 ± 0.033	0.874 ± 0.029	0.939 ± 0.019	0.887 ± 0.074	0.936 ± 0.021	0.905 ± 0.095	0.85 ± 0.013	0.84 ± 0.094	0.849 ± 0.02											
Cc1cc(C)c(/C=C2\C(=O)Nc3ccccc32)[nH]1 [Semaxanib]	0.893 ± 0.093	0.895 ± 0.11	0.895 ± 0.074	0.889 ± 0.093	0.871 ± 0.086	0.883 ± 0.097	0.853 ± 0.078	0.821 ± 0.069	0.762 ± 0.07	0.747 ± 0.057	0.613 ± 0.036											
CC1(C)CNc2cc(NC(=O)c3cccnc3NCc3ccncc3)ccc21 [Motesanib]	0.999 ± 0.075	1.03 ± 0.077	1 ± 0.077	1 ± 0.043	0.992 ± 0.037	1.03 ± 0.064	0.955 ± 0.073	0.932 ± 0.046	0.872 ± 0.051	0.828 ± 0.019	0.779 ± 0.065											
Cc1nc(-c2cn3c(n2)-c2ccc(-c4cnn(C(C)(C)C(N)=O)c4)cc2OCC3)n(C(C)C)n1 [Taselisib]	0.913 ± 0.018	0.935 ± 0.041	0.893 ± 0.045	0.891 ± 0.076	0.798 ± 0.066	0.756 ± 0.062	0.644 ± 0.053	0.629 ± 0.019	0.5241 ± 0.0042	0.487 ± 0.013	0.429 ± 0.014											
CC(C)NC(=O)C1CCC(n2c(NC(=O)c3ccc(F)cc3)nc3ccc(CN4CCC(C(C)(C)O)CC4)cc32)CC1 (stereo unspecified) [Belizatinib]	0.93 ± 0.018	0.952 ± 0.042	0.967 ± 0.057	0.945 ± 0.027	0.949 ± 0.061	0.9059 ± 0.0065	0.836 ± 0.043	0.695 ± 0.041	0.602 ± 0.04	0.526 ± 0.02	0.42 ± 0.053											
C=CC(=O)Nc1cccc(Oc2nc(Nc3ccc(N4CCN(C)CC4)cc3)nc3ccsc23)c1 [Olmutinib]	1.02 ± 0.095	1.03 ± 0.1	0.996 ± 0.094	0.988 ± 0.07	0.922 ± 0.05	0.968 ± 0.11	0.958 ± 0.093	0.904 ± 0.097	0.925 ± 0.079	0.887 ± 0.051	0.713 ± 0.059											
CNC(=O)c1cc(Oc2ccc(NC(=O)Nc3ccc(Cl)c(C(F)(F)F)c3)c(F)c2)ccn1 [Regorafenib]	1.08 ± 0.027	1.07 ± 0.04	1.03 ± 0.048	1.02 ± 0.046	0.945 ± 0.093	0.9469 ± 0.0076	0.98 ± 0.069	0.845 ± 0.014	0.824 ± 0.039	0.809 ± 0.014	0.651 ± 0.014											
COc1cc2c(cc1O)CCN[C@]21CS[C@@H]2c3c(OC(C)=O)c(C)c4c(c3[C@H](COC1=O)N1[C@@H]2[C@H]2c3c(cc(C)c(OC)c3O)C[C@@H]([C@@H]1O)N2C)OCO4 [Trabectedin]												0.999 ± 0.056	0.952 ± 0.019	0.957 ± 0.067	0.859 ± 0.044	0.557 ± 0.15	0.137 ± 0.14	0.183 ± 0.041	0.166 ± 0.0097	0.124 ± 0.0083	1.02 ± 0.048	1.05 ± 0.034
